Where a name gives a salt, the structure may show the parent alone.
Experiment: Evaluation of taste (bitter, sour, sweet) by panellists, orange juice with and without added 4-hydroxyflavanone
Assay type: in vivo
Excerpt: Masking the perception of sour and the bitterness in orange juice, which was obtained from premature fruits and/or HLB infected fruits with at least 5 ppm limonin
A commercial orange juice was used for the experiments, which according to an analysis contains 7.8 ppm limonin and was regularly evaluated as too bitter from the panellists. The panellists (n=6) thereby evaluate the 3 attributes “sweet”, “bitter” and “sour” on an unstructured scale of 0 (no taste) to 10 (strong taste). In one sample, the panellists received the orange juice alone, in a further sample, they received the orange juice which was supplemented with an amount of 4-hydroxyflavanone as listed in one of the tables. Thereby, the order was arbitrary and not known to the panellists before.

[1] = 10 ppm in the examined orange juice
[2] = 10 ppm racemic eriodictyol vs orange juice (7.8 ppm limonin) alone, Example 2
[3] = B (10 ppm racemic eriodictyol) vs A (orange juice 7.8 ppm limonin alone), Example 5
[4] = orange juice containing 7.8 ppm limonin + 10 ppm racemic eriodictyol, scale 0-10, n=6 panellists, Example 2
[5] = sample B: orange juice containing 7.8 ppm limonin + 10 ppm racemic eriodictyol, scale 0-10, Example 5
[6] = 30 ppm in the examined orange juice
[7] = 30 ppm racemic homoeriodictyol-sodium-salt vs orange juice (7.8 ppm limonin) alone, Example 4
[8] = 50 ppm racemic homoeriodictyol-sodium-salt vs orange juice (7.8 ppm limonin) alone, Example 3
[9] = orange juice containing 7.8 ppm limonin + 30 ppm racemic homoeriodictyol-sodium-salt, scale 0-10, n=6 panellists, Example 4
[10] = orange juice containing 7.8 ppm limonin + 50 ppm racemic homoeriodictyol-sodium-salt, scale 0-10, n=6 panellists, Example 3
[11] = 20 ppm in the examined orange juice
[12] = 20 ppm racemic naringenin vs orange juice (7.8 ppm limonin) alone, Example 1
[13] = orange juice containing 7.8 ppm limonin + 20 ppm racemic naringenin, scale 0-10, n=6 panellists, Example 1

O=C1C[C@@H](c2ccc(O)c(O)c2)Oc2cc(O)cc(O)c21 (racemic) [racemic eriodictyol, eriodictyol]
effect on bitter taste (in words) [1]: strong reduction
effect on sour perception (in words) [1]: decreased
effect on sweet impression (in words) [1]: increased
Relative change Bitter [2]: −32%
Relative change Sour [2]: −20%
Relative change Sweet [2]: +28%
Relative change A/B Bitter [3]: −21%
Relative change A/B Sour [3]: −12%
Relative change A/B Sweet [3]: +40%
Evaluation (0-10) Bitter [4]: 3.2
Evaluation (0-10) Sour [4]: 4.4
Evaluation (0-10) Sweet [4]: 5.1
Evaluation (0-10) Bitter [5]: 3.9
Evaluation (0-10) Sour [5]: 4.4
Evaluation (0-10) Sweet [5]: 4.2

COc1cc([C@@H]2CC(=O)c3c(O)cc(O)cc3O2)ccc1O (racemic) [racemic homoeriodictyol-sodium-salt, homoeriodictyol-sodium-salt]
effect on bitter taste (in words) [6]: clear reduction
effect on sour impression (in words) [6]: decreases
effect on sweet taste (in words) [6]: does not influence
Relative change Bitter [7]: −27%
Relative change Sour [7]: −12%
Relative change Sweet [7]: +3%
effect on sour perception (in words) (50 ppm in the examined orange juice): influenced more strongly
Relative change Bitter [8]: −13%
Relative change Sour [8]: −23%
Relative change Sweet [8]: +24%
Evaluation (0-10) Bitter [9]: 3.2
Evaluation (0-10) Sour [9]: 4.1
Evaluation (0-10) Sweet [9]: 4.8
Evaluation (0-10) Bitter [10]: 4.1
Evaluation (0-10) Sour [10]: 3.3
Evaluation (0-10) Sweet [10]: 4.0

O=C1C[C@@H](c2ccc(O)cc2)Oc2cc(O)cc(O)c21 (racemic) [racemic naringenin, naringenin]
effect on bitter taste (in words) [11]: clear reduction
effect on sour impression (in words) [11]: decrease
effect on sweet impression (in words) [11]: increase
Relative change Bitter [12]: −31%
Relative change Sour [12]: −25%
Relative change Sweet [12]: +30%
Evaluation (0-10) Bitter (orange juice containing 7.8 ppm limonin + 20 ppm racemic naringenin, scale 0 (no taste) to 10 (strong taste), n=6 panellists, Example 1): 3.4
Evaluation (0-10) Sour [13]: 3.3
Evaluation (0-10) Sweet [13]: 5.2

Source: patent US10765134B2, “Foodstuff containing citrus products having added 4-hydroxyflavanones” (SYMRISE AG, priority 2015, dated 2020)
